Source: ChEMBL document CHEMBL3507680, “University of Dundee, Gates Library screen for HepG2 cell viability”

experiment: Human HepG2 cell viability assay in 384 well format; assay type: toxicity, cell-based; set-up: dose 125 nL, time 70.5 hour; cytotoxicity at 70.5 h: concentration not given beside the values; settings: HepG2 cells, read-out: Inhibition

| Compound | cytotoxicity at 70.5 h [%] |
| --- | --- |
| COc1ccc2nnc(CCC(=O)Nc3nc4c(s3)CCCC4)n2n1 | -11.9 |
| CN(CCCc1ccccc1)Cc1nc2c(cnn2C)c(=O)[nH]1 | -5.07 |
| COCC1CCN(Cc2cc(O)c3c(C)ccc(C)c3n2)CC1 | 17.7 |
| O=C1CCCN1CC1CN(C(=O)C2CCOCC2)Cc2nccn2C1 (configuration not stated) | -1.66 |
| CC(Cc1ccco1)NC(=O)Nc1cnn(CC(N)=O)c1 (configuration not stated) | -1.8 |
| Cc1nc(COc2ccc(CNCC3CN(C)CCO3)cc2)cs1 (configuration not stated) | 20.1 |
| Cc1nncn1CCNC(=O)C(C)(C)c1cccc(F)c1 | -7.47 |
| COc1ccc(CN2C[C@@H]3CC[C@H](C2)N(S(C)(=O)=O)C3)cc1 | -7.94 |
| Cn1c(C2CC2)nc2c1CCN(CCc1ccccn1)C2 | -5.41 |
| Cc1ccccc1S(=O)(=O)CCOC(C)C | 9.57 |
| Cc1cccc(Nc2cccc(C3CCCN(Cc4ncc[nH]4)C3)n2)n1 (configuration not stated) | -8.27 |
| COc1ccc(N2CCNC(C(N)=O)C2)cc1 (configuration not stated) | 18.6 |
| O=S(=O)(C1CC1)N1CCCC2(COCCN(c3nncs3)C2)C1 (configuration not stated) | 12.7 |
| COCC1CN(C(=O)Cc2ccccn2)Cc2ncnn2C1 (configuration not stated) | 16.8 |
| CCS(=O)(=O)Nc1ccc2c(c1)OCC(C)(C)C(=O)N2C | 19 |
| Cc1ccc(C)c(-n2nnnc2SCN2CCCCC2=O)c1 | -3.06 |
| Cc1cc(N2CCC(CO)(CC3CCCCO3)CC2)nc2ccccc12 (configuration not stated) | -9.32 |
| FC(F)(F)Cn1ccnc1CNCC1CCCN1c1cccnn1 (configuration not stated) | -13.2 |
| COCCN(C)C[C@@H]1CN(C(=O)c2sc3ccccc3c2C)C[C@@H]1CO | -6.69 |
| c1cnn(CC2CN(Cc3nc(-c4ccsc4)no3)CCO2)c1 (configuration not stated) | -16.6 |
| CC(C)CCN1C[C@@H]2OCCN(c3ncc(F)cn3)[C@@H]2C1 | -4.42 |

| Compound | cytotoxicity at 70.5 h [%] |
| --- | --- |
| NCc1ccnc(Oc2ccc(F)cc2)c1 | -17 |
| Cc1noc(CN2CCC(Cc3ccc(F)cc3)CC2)n1 | -9.61 |
| CC(C)Oc1ncccc1CNC(=O)C1CCCN(C(=O)C2CC2)C1 (configuration not stated) | 6.38 |
| CCN(C1CCS(=O)(=O)C1)S(=O)(=O)c1cccc2cc(C)cnc12 (configuration not stated) | 2.06 |
| Cn1cnnc1C1CCCN(C(=O)COc2ccccc2Cl)C1 (configuration not stated) | -6.87 |
| COCC1CC2(CCN(Cc3cnn(C)c3)CC2)CN1C(C)C (configuration not stated) | -15.8 |
| CCc1nc(CC(=O)NCC2(C(N)=O)CCOCC2)cs1 | -6.76 |
| O=C(NCCNc1ncccn1)c1ccc(OCc2ccccc2)nc1 | -13.5 |
| CC(CCNC(=O)NCCNc1cnccn1)c1ccccc1 (configuration not stated) | -13.6 |
| O=C(c1ccccn1)N1CCc2ncnc(N3CCOCC3)c2CC1 | -5.19 |
| Cc1ccc(-c2ncc(CN3CCN(S(N)(=O)=O)CC3)s2)o1 | 0.625 |
| COCCN1CCC2(CC1)CN(Cc1cccc(C)n1)C(=O)CO2 | 0.221 |
| Cc1noc(CCNC(=O)c2ccc(Br)c(S(=O)(=O)N(C)C)c2)n1 | -4.79 |
| COCC(=O)NCc1cc(=O)n2c(n1)CN(Cc1nccs1)CCC2 | -5.03 |
| CCOc1ccc(Cl)c(C(=O)N2CCN(CC(C)(C)O)CC2)n1 | -12.6 |
| CCC(O)(CNCc1ccncc1)c1ccc(Br)cc1 (configuration not stated) | 1.46 |
| CC(NC(=O)NCCCn1cccn1)c1ccncc1 (configuration not stated) | -10.8 |
| CCC(C)C(=O)NCc1cc(Br)c(OC)c(OC)c1 (configuration not stated) | -6.76 |
| COc1ccc(OC)c(CN2CCCCCC2c2cccs2)c1 (configuration not stated) | 31.6 |
| Cc1cc(CN2C[C@@H]3COC[C@]3(COCC(=O)N(C)C)C2)no1 | -4.13 |
| Cc1nc(N2CCOCC2)nc2c1CN(C(=O)C(C)C)CC2 | 4.55 |

| Compound | cytotoxicity at 70.5 h [%] |
| --- | --- |
| Cc1cc(N2CCC(c3n[nH]c4nccnc34)C2)ncn1 (configuration not stated) | 19.2 |
| CC(C)(CNC(=O)Nc1cccc(-c2cccs2)c1)C(N)=O | 0.351 |
| Cc1occc1C(=O)NCC(=O)N1CCC(COc2ccccc2)CC1 | -2.93 |
| Cc1nc(C)n(CC2CCCCN2CCc2ccncc2)n1 (configuration not stated) | 16.8 |
| CC(C)c1n[nH]c(C2CN(C(=O)c3cc(C4CC4)on3)CCO2)n1 (configuration not stated) | -11.3 |
| Cc1cc(C2CCC2)nc(N2CCC3(CCCNC3=O)C2)n1 (configuration not stated) | -18.8 |
| CO[C@@H]1CCN(c2ncc(F)cn2)[C@@H]2CN(CC3CC3)C[C@@H]21 | -11.2 |
| Cc1nc(CN2C[C@@H](NS(=O)(=O)N(C)C)[C@H](C(C)C)C2)cs1 | -1.78 |
| CN1C(=O)CCN(C(=O)C2CCCCC2)c2ccccc21 | 9.73 |
| O=C(COCc1ccccc1)N1CCC(OCc2cccnc2)CC1 | -3.09 |
| CC(O)CN1CCC(CN(C)Cc2ccc(C#N)cc2)CC1 (configuration not stated) | -11 |
| NC(=O)N1CCC2(CC1)CN(c1ncccn1)CCO2 | -7.64 |
| CC1CCC(N2CCC(NS(=O)(=O)CCOC(C)C)CC2)CC1 (configuration not stated) | 14.8 |
| Cc1cc(O)cc(C2CCCN2C(=O)c2ccncc2)n1 (configuration not stated) | -5.31 |
| O=C(NS(=O)(=O)c1cnn(-c2ccccc2F)c1)c1ccco1 | 1.58 |
| O=C(CC1CC1)N1CCC2(COCc3cnc(-c4ccccc4)nc32)C1 (configuration not stated) | -8.52 |
| CNC(=O)C1Cc2ccccc2CN1C(=O)CC(C)C (configuration not stated) | -10.1 |
| Cc1nn2cccnc2c1C(=O)NCc1ccccc1OCC1CC1 | -13.8 |
| CN(CC(=O)Nc1ccccc1C(=O)NC1CC1)Cc1ccccc1Cl | 0.515 |
| Cc1c(NCc2ccccc2C#N)cccc1S(=O)(=O)NC1CC1 | 5.79 |
| O=c1ccc2c(n1CC1CCOCC1)CCN(Cc1ccoc1)CC2 | 49.3 |

| Compound | cytotoxicity at 70.5 h [%] |
| --- | --- |
| CC(C)(C)CNC[C@H]1Cn2c(-c3ccccc3)cnc2CO1 | -3.54 |
| CC1(C)OC(=O)N(CCOc2ccc(F)cc2)C1=O | -4.69 |
| O=C1CNCC(C(=O)N2CC(Oc3ccccc3Cl)C2)N1 (configuration not stated) | -7.25 |
| CC(C)Cc1nc(CS(=O)(=O)c2ccccc2)no1 | -2.63 |
| COc1ccc(-c2nccn2CC(O)CN2CCCC2)c(F)c1 (configuration not stated) | 28.4 |
| O=C1NCC2(CCCN(C(=O)c3c[nH]nc3C3CCCCC3)C2)O1 (configuration not stated) | -10.2 |
| CN(C)c1ncccc1CNC(=O)N1CCCC1CN1CCCCC1 (configuration not stated) | -32 |
| COc1ncccc1CNc1cc(N2CCCC2CO)ncn1 (configuration not stated) | -12 |
| CN(Cc1ccc(-n2cccn2)cc1)c1cc(N)nc(N)n1 | 18.4 |
| O=C1CCC(C(=O)N2CCC(Cn3cc(C4CCCC4)nn3)CC2)=NN1 | -2.69 |
| Cc1nsc(N2CCN(CC(=O)NCc3cccnc3)CC2)n1 | -0.83 |
| Cc1ccc2cc(C3(O)CCN(C(=O)CSC(C)C)CC3)ccc2n1 | -6 |
| Cc1ccc(N2CC3(COCCN(Cc4ccncc4)C3)OCC2=O)s1 (configuration not stated) | 3.84 |
| CC(C)c1nc(C2CCCN2C(=O)c2cnc[nH]2)no1 (configuration not stated) | 21.4 |
| Cc1ccc(C(N)=O)c(N2Cc3cnc(C(C)(C)C)nc3C2)n1 | -11.7 |
| CS(=O)(=O)NC[C@]12COC[C@H]1CN(C(=O)c1ccoc1)C2 | -3.34 |
| CNS(=O)(=O)CCn1cc(-c2ccc(NC(C)=O)cc2)nn1 | 3.8 |
| Cc1nc(-c2cc(C(=O)NCC(C)(C)CO)c3ccccn23)cs1 | 5.35 |
| CC(=O)N1CCCC(c2nnc3n2CCN(C(=O)C2CCCCC2)C3)C1 (configuration not stated) | -8.2 |
